# Source: US20120214824A1, “PROTEOSTASIS REGULATORS” (priority 2010, published 2012)
# Legend:
# firefly luciferase = assay: Luciferase folding assay (Lucif.); type: cell-based, human; conditions: HeLa-luciferase cells; for Lucif. (luciferase activity induction): Table 1a
# From the text: Firefly luciferase is a commonly used bioluminescent reporter. This monomeric enzyme of 61 kDa catalyzes a two-step oxidation reaction to yield light, usually in the green to yellow region, typically 550-570 nm. The first step of this reaction is activation of the luciferyl carboxylate by ATP to yield a reactive mixed anhydride. In the second step, the activated intermediate reacts with oxygen to create a transient dioxetane that breaks down to the oxidized products, oxyluciferin and CO2. Upon mixing with substrates, firefly luciferase produces an initial burst of light that decays over about 15 seconds to a low level of sustained luminescence. This kinetic profile reflects the slow release of the enzymatic product, thus limiting catalytic turnover after the initial reaction.
# This mammalian cell based assay that used firefly luciferase as a sensor was used to screen for compounds that may modulate the cellular folding environment.
# HeLa luciferase cell lines: Frozen bullets containing the cells were thawed briefly at 37° C. then placed into a T-150 flask containing 30-35 ml DMEM medium+Penicillin/Strep (1% final+10% FBS (final)+Geneticin @ 200-500 ug/ml. Cell cultures were maintained at 37° C. with 5% CO2 and water in the bottom of the incubator to keep cells healthy. Upon expanding cell line, luciferase measurements were taken to make sure that activity levels were between 2000-5000 (RLU) when plated at 15K/well in a 96-well format (Bright-Glo Promega) before compound treatment.
# Compound treatment of HeLa-luciferase cells: HeLa-luciferase WT cells were plated in a 96-well format at 15K/well the day prior to performing compound treatment and/or luciferase assay. […] Final volume used per well was 90 uL. Flat bottom, white polystyrene plates were used for plating the cells.
# For compound treatment, stocks of compounds were made up at 10 mM concentration in DMSO. Stocks compounds were diluted by 100× fold in the same media used for culturing the cells—this leads to a 0.1 mM (or 100 uM) concentration. After diluting the compound in media, 10 uL of the 100 uM solution was placed into each well of cells (90 uL); making the final concentration of the compound 10 uM. If serial dilutions of compounds were tested, serial dilutions of compounds were first made in DMSO accordingly, and further diluted in the media, prior to adding to cells. This procedure allowed for constant final levels of DMSO concentrations, regardless of initial compound concentration.
# Performing luciferase activity assay: Bright-Glo Luciferase Assay Reagent (Promega cat #: E2610, E2620, E2650) was thawed out at RT in a water bath. Alternatively, Bright-Glo Luciferase assay buffer (prior to mixing with substrate) was stored overnight at RT, prior to using.
# Following compound treatment, plates were removed from 37° C. and allowed to acclimate to RT for 5-10 min. Bright-Glo reagent was added to each cell-containing well in a 1:1 ratio (e.g., 100 uL of Bright Glo for each 100 uL cells).
# Plates were placed on a plate shaker for 5 min, removing any air bubbles on the surface (which may interfere with proper reads), and then read on an EnVision 2104 Multilabel reader, Emission filter Luminescence 700, barcode 212, WL 400-700 nm.
# Data for representative compounds in this assay are shown under the heading “Lucif.”
# BCL2 = assay: Multigene assay (QuantiGene Plex 2.0), mouse MEF cell line; type: cell-based; conditions: 6 hours post-compound treatment
# Method: (§1) This assay used the QuantiGene Plex 2.0 Reagent System from Affymetrix. This assay combines the use of bDNA (branch DNA) and xMAP magnetic capture beads from Luminex Technologies to quantitatively and simultaneously detect multiple mRNA transcripts per well. The overall procedure was performed according to the QuantiGene Plex 2.0 Reagent System instruction manual from Affymetrix.
# (§2) Cells were seeded at a density of 12,000 cells/well in 96-well plates with an overnight incubation at 37° C., 5% CO2. Cells were treated with serially diluted compounds in a 7-point dose dependent manner. Cell lysis with 50% [v/v] Panomics Lysis Mixture (Lysis Mixture+10 μl/ml 25 Proteinase K) was performed 6 hours post-compound treatment. Lysed cells were heated at 50° C. to ensure appropriate lysing and the plates were then frozen at −80° C. Cell lysates, thawed at room temperature on the day of the assay, were pooled with mouse 8-gene multiplex probe sets and with 8 different sets of magnetic capture beads (Luminex Technology, Austin, Tex.) in a 100 μl/well volume. Biomek FX was used at every liquid transfer step. The eight plates containing lysate-probe-bead mixtures were incubated at 54° C.±1° C. on a shaking platform for an overnight incubation in the dark (18-20 hours). The following day the hybridization plates were compressed by transferring the hybridized lysates into a single magnetic capture plate. The plate was kept on a magnet to hold the beads and then washed with Panomics Wash Buffer 2.0 on a BioTek ELx405 select plate washer to remove any unbound sample. This step was followed by serial hybridizations and washings of the bDNA pre-amplifier (1 hour, 50° C.), bDNA amplifier (1 hour, 50° C.), label probe (1 hour, 50° C.), and streptavidin-phycoerythrin (SAPE, 30 minutes, room temperature). (Zhang, A. et al. Small interfering RNA and gene expression analysis using a multiplex branched DNA assay without RNA purification. J Biomol Screen 10, 549-56 (2005)). The plate was then washed with SAPE wash buffer to remove unbound SAPE and each well was analyzed with the Luminex FlexMap3D (Luminex, Austin, Tex.). SAPE fluorescence measured from each bead was proportional to the number of mRNA transcripts captured by the beads (Zheng, Z., Luo, Y. & McMaster, G. K. Sensitive and quantitative measurement of gene expression directly from a small amount of whole blood. Clin Chem 52, 1294-302 (2006)). Fold changes in gene expression were obtained for each gene per well by normalizing the raw data first to the DMSO control and then to a housekeeping gene (TBP-TATA binding protein or Tub1-alpha-tubulin).
# GCLM = assay: as above; type: cell-based; conditions: 6 hours post-compound treatment
# Method: as §1, §2
# HMOX = assay: as above; type: cell-based; conditions: 6 hours post-compound treatment
# Method: as §1, §2
# HspA5 = assay: as above; type: cell-based; conditions: 6 hours post-compound treatment
# Method: as §1, §2
# TUB1 = assay: as above; type: cell-based; conditions: 6 hours post-compound treatment
# Method: as §1, §2
# DDIT3 = assay: as above; type: cell-based; conditions: 6 hours post-compound treatment
# Method: as §1, §2
# HSPA1a = assay: as above; type: cell-based; conditions: 6 hours post-compound treatment
# Method: as §1, §2
compound,measurement,setting,value
CC1=C(C#N)C(c2ccc(F)cc2)C2=C(CC(c3cccs3)CC2=O)N1 (stereo not shown) [drawing 26/Me/CN/p-F],Lucif. (luciferase activity induction),firefly luciferase,+ (+ indicates a induction of greater than 2 fold)
same,BCL2 gene induction,BCL2; Table 1b,− (− Indicates less than 2 fold induction)
same,GCLM gene induction,GCLM; Table 1a,− (− Indicates less than 2 fold induction)
same,HMOX gene induction,HMOX; Table 1b,− (− Indicates less than 2 fold induction)
same,HspA5 gene induction,HspA5; Table 1b,− (− Indicates less than 2 fold induction)
same,TUB1 gene induction,TUB1; Table 1a,− (− Indicates less than 2 fold induction)
same,DDIT3 gene induction,DDIT3; Table 1a,− (− Indicates less than 2 fold induction)
same,HSPA1a gene induction,HSPA1a; Table 1b,− (− Indicates less than 2 fold induction)
CC1=C(C(=O)OCC(C)C)C(c2ccc(F)cc2)C2=C(CC(c3cccs3)CC2=O)N1 (stereo not shown) [drawing 26/Me/COOCH2CHMe2/p-F #2],Lucif. (luciferase activity induction),firefly luciferase,+ (+ indicates a induction of greater than 2 fold)
same,BCL2 gene induction,BCL2; Table 1b,− (− Indicates less than 2 fold induction)
same,GCLM gene induction,GCLM; Table 1a,− (− Indicates less than 2 fold induction)
same,HMOX gene induction,HMOX; Table 1b,− (− Indicates less than 2 fold induction)
same,HspA5 gene induction,HspA5; Table 1b,− (− Indicates less than 2 fold induction)
same,TUB1 gene induction,TUB1; Table 1a,− (− Indicates less than 2 fold induction)
same,DDIT3 gene induction,DDIT3; Table 1a,+ (+ indicates a induction of greater than 2 fold)
same,HSPA1a gene induction,HSPA1a; Table 1b,− (− Indicates less than 2 fold induction)
CCCc1n[nH]c2c1C(c1cc(Br)ccc1O)C(C#N)=C(N)O2 (stereo not shown) [drawing 28/(CH2)2Me/2-OH-5-Br],Lucif (luciferase activity induction),firefly luciferase; Table 3a,+ (+ indicates a induction of greater than 2 fold)
same,BCL2 gene induction,BCL2; Table 3b,− (− Indicates less than 2 fold induction)
same,GCLM gene induction,GCLM; Table 3a,+ (+ indicates a induction of greater than 2 fold)
same,HMOX gene induction,HMOX; Table 3b,+ (+ indicates a induction of greater than 2 fold)
same,HspA5 gene induction,HspA5; Table 3b,− (− Indicates less than 2 fold induction)
same,TUB1 gene induction,TUB1; Table 3a,− (− Indicates less than 2 fold induction)
same,DDIT3 gene induction,DDIT3; Table 3a,− (− Indicates less than 2 fold induction)
same,HSPA1a gene induction,HSPA1a; Table 3b,− (− Indicates less than 2 fold induction)
CCCc1n[nH]c2c1C(c1ccccc1Br)C(C#N)=C(N)O2 (stereo not shown) [drawing 28/(CH2)2Me/2-Br],Lucif (luciferase activity induction),firefly luciferase; Table 3a,+ (+ indicates a induction of greater than 2 fold)
same,BCL2 gene induction,BCL2; Table 3b,− (− Indicates less than 2 fold induction)
same,GCLM gene induction,GCLM; Table 3a,+ (+ indicates a induction of greater than 2 fold)
same,HMOX gene induction,HMOX; Table 3b,+ (+ indicates a induction of greater than 2 fold)
same,HspA5 gene induction,HspA5; Table 3b,− (− Indicates less than 2 fold induction)
same,TUB1 gene induction,TUB1; Table 3a,− (− Indicates less than 2 fold induction)
same,DDIT3 gene induction,DDIT3; Table 3a,− (− Indicates less than 2 fold induction)
same,HSPA1a gene induction,HSPA1a; Table 3b,− (− Indicates less than 2 fold induction)
CC1=C(C(=O)OCC(C)C)C(c2ccc(F)cc2)C2=C(CC(c3ccccc3)CC2=O)N1 (stereo not shown) [drawing 27/Me/COOCH2CHMe2/p-F/H],Lucif (luciferase activity induction),firefly luciferase; Table 2a,+ (+ indicates a induction of greater than 2 fold)
same,BCL2 gene induction,BCL2; Table 2b,− (− Indicates less than 2 fold induction)
same,GCLM gene induction,GCLM; Table 2a,− (− Indicates less than 2 fold induction)
same,HMOX gene induction,HMOX; Table 2b,− (− Indicates less than 2 fold induction)
same,HspA5 gene induction,HspA5; Table 2b,− (− Indicates less than 2 fold induction)
same,TUB1 gene induction,TUB1; Table 2a,− (− Indicates less than 2 fold induction)
same,DDIT3 gene induction,DDIT3; Table 2a,− (− Indicates less than 2 fold induction)
same,HSPA1a gene induction,HSPA1a; Table 2b,− (− Indicates less than 2 fold induction)
N#CC1=C(N)NC2=C(C(=O)CC(c3ccccc3)C2)C1c1ccc(F)cc1 (stereo not shown) [drawing 27/NH2/CN/p-F/H],Lucif (luciferase activity induction),firefly luciferase; Table 2a,+ (+ indicates a induction of greater than 2 fold)
same,BCL2 gene induction,BCL2; Table 2b,− (− Indicates less than 2 fold induction)
same,GCLM gene induction,GCLM; Table 2a,− (− Indicates less than 2 fold induction)
same,HMOX gene induction,HMOX; Table 2b,− (− Indicates less than 2 fold induction)
same,HspA5 gene induction,HspA5; Table 2b,− (− Indicates less than 2 fold induction)
same,TUB1 gene induction,TUB1; Table 2a,− (− Indicates less than 2 fold induction)
same,DDIT3 gene induction,DDIT3; Table 2a,+ (+ indicates a induction of greater than 2 fold)
same,HSPA1a gene induction,HSPA1a; Table 2b,+ (+ indicates a induction of greater than 2 fold)
CC(C)Oc1ccccc1C1C(C#N)=C(N)NC2=C1C(=O)CC(c1ccccc1)C2 (stereo not shown) [drawing 27/NH2/CN/o-OCHMe2/H],Lucif (luciferase activity induction),firefly luciferase; Table 2a,+ (+ indicates a induction of greater than 2 fold)
same,BCL2 gene induction,BCL2; Table 2b,− (− Indicates less than 2 fold induction)
same,GCLM gene induction,GCLM; Table 2a,− (− Indicates less than 2 fold induction)
same,HMOX gene induction,HMOX; Table 2b,+ (+ indicates a induction of greater than 2 fold)
same,HspA5 gene induction,HspA5; Table 2b,− (− Indicates less than 2 fold induction)
same,TUB1 gene induction,TUB1; Table 2a,− (− Indicates less than 2 fold induction)
same,DDIT3 gene induction,DDIT3; Table 2a,+ (+ indicates a induction of greater than 2 fold)
same,HSPA1a gene induction,HSPA1a; Table 2b,+ (+ indicates a induction of greater than 2 fold)
CC1=C(C(=O)OCC(C)C)C(c2ccc(F)cc2)C2=C(CC(c3cccs3)CC2=O)N1 (stereo not shown) [drawing 26/Me/COOCH2CHMe2/p-F #1],Lucif. (luciferase activity induction),firefly luciferase,+ (+ indicates a induction of greater than 2 fold)
N#CC1=C(N)Oc2[nH]nc(-c3ccccn3)c2C1c1cccs1 (stereo not shown) [drawing 29/2-Pyridyl/H/H/S],BCL2 gene induction,BCL2; Table 4b,− (− Indicates less than 2 fold induction)
same,GCLM gene induction,GCLM; Table 4a,+ (+ indicates a induction of greater than 2 fold)
same,HMOX gene induction,HMOX; Table 4b,+ (+ indicates a induction of greater than 2 fold)
same,HspA5 gene induction,HspA5; Table 4b,− (− Indicates less than 2 fold induction)
same,TUB1 gene induction,TUB1; Table 4a,− (− Indicates less than 2 fold induction)
same,DDIT3 gene induction,DDIT3; Table 4a,− (− Indicates less than 2 fold induction)
same,HSPA1a gene induction,HSPA1a; Table 4b,− (− Indicates less than 2 fold induction)
